ChEMBL document CHEMBL1201862, “PubChem BioAssay data set” (2004)
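Five compound concentrations were applied to cells in 96-well plates for 48 hours; endpoints were derived by simple linear interpolation of the resulting dose-response curve. At the GI50, growth is halved.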 Active and inactive are the calls of the source. Cut-off read from the data, not from the text of the source: active = GI50 up to about 1.1 µM and inactive = higher.

Experiments:
Assay in all cases: growth of human tumour cells (NCI), 48 h
[1] = tested on: RXF 393
[2] = tested on: IGROV-1
[3] = tested on: SNB-75
[4] = tested on: SN12C
[5] = tested on: A498
[6] = tested on: SK-OV-3
[7] = tested on: COLO 205
[8] = tested on: SK-MEL-2
[9] = tested on: 786-0
[10] = tested on: UACC-62
[11] = tested on: MDA-N
[12] = tested on: SW-620
[13] = tested on: Malme-3M
[14] = tested on: SK-MEL-5
[15] = tested on: LOX IMVI
[16] = tested on: DU-145
[17] = tested on: U-251
[18] = tested on: T47D
[19] = tested on: SF-268
[20] = tested on: OVCAR-4

Structure (SMILES) | GI50 [1] | GI50 [2] | GI50 [3] | GI50 [4] | GI50 [5] | GI50 [6] | GI50 [7] | GI50 [8] | GI50 [9] | GI50 [10] | GI50 [11] | GI50 [12] | GI50 [13] | GI50 [14] | GI50 [15] | GI50 [16] | GI50 [17] | GI50 [18] | GI50 [19] | GI50 [20]
COc1ccccc1C1ON=C(c2ccc([N+](=O)[O-])cc2)N1C12CC3CC(CC(C3)C1)C2 (stereo not given) | 12.1 µM (inactive) | > 100 µM (inactive) | 42.1 µM (inactive) | > 100 µM (inactive) | > 100 µM (inactive) | > 100 µM (inactive) | > 100 µM (inactive) | > 100 µM (inactive) | > 100 µM (inactive) | > 100 µM (inactive) | > 100 µM (inactive) | > 100 µM (inactive) | 61.5 µM (inactive) | 59.6 µM (inactive) | > 100 µM (inactive) | > 100 µM (inactive) | > 100 µM (inactive) | 14 µM (inactive) | > 100 µM (inactive) | > 100 µM (inactive)
CN1CSC(=S)N(c2cccc(C(F)(F)F)c2)C1 | 37.2 µM (inactive) | 18.7 µM (inactive) | 42.2 µM (inactive) | 36.1 µM (inactive) | 28.3 µM (inactive) | 29.4 µM (inactive) | 19 µM (inactive) | 21.3 µM (inactive) | 26.2 µM (inactive) | 16.9 µM (inactive) | 29.2 µM (inactive) | 31.6 µM (inactive) | 18.7 µM (inactive) | 17.1 µM (inactive) | 20.2 µM (inactive) | 41.9 µM (inactive) | 32 µM (inactive) | 31.7 µM (inactive) | 23.1 µM (inactive) | 19.3 µM (inactive)
COC(=O)/C(C#N)=C/c1cc(C(C)(C)C)c(O)c(C(C)(C)C)c1 | 3.41 µM (inactive) | 4.55 µM (inactive) | 3.3 µM (inactive) | 1.48 µM (inactive) | 1.77 µM (inactive) | 2.48 µM (inactive) | 1.44 µM (inactive) | 1.73 µM (inactive) | 3.15 µM (inactive) | 1.76 µM (inactive) | 2.92 µM (inactive) | 3.03 µM (inactive) | 5.55 µM (inactive) | 1.18 µM (inactive) | 3.95 µM (inactive) | 4.58 µM (inactive) | 2.26 µM (inactive) | 0.83 µM (active) | 3.27 µM (inactive) | 1.85 µM (inactive)
C/C(=N\N=C(/[SeH])N1CC2CCC(CC2)C1)c1ccccn1 | 0.0291 µM (active) | 0.0169 µM (active) | 0.0871 µM (active) | 0.228 µM (active) | 0.196 µM (active) | 0.356 µM (active) | < 0.01 µM (active) | 0.156 µM (active) | 0.211 µM (active) | 0.0596 µM (active) | 0.226 µM (active) | 0.0139 µM (active) | 0.0506 µM (active) | 0.051 µM (active) | 0.0244 µM (active) | 0.927 µM (active) | 0.091 µM (active) | 0.0556 µM (active) | 0.161 µM (active) | 0.03 µM (active)
COC(=O)c1cc(NC(=O)c2cc(NC(=O)c3cc([N+](=O)[O-])cn3C)cn2C)cn1C | > 100 µM (inactive) | 0.0147 µM (active) | > 100 µM (inactive) | > 100 µM (inactive) | > 100 µM (inactive) | 49.4 µM (inactive) | 44.4 µM (inactive) | 80.2 µM (inactive) | > 100 µM (inactive) | 55.6 µM (inactive) | > 100 µM (inactive) | > 100 µM (inactive) | 26.9 µM (inactive) | 10.2 µM (inactive) | 56.2 µM (inactive) | > 100 µM (inactive) | 36.8 µM (inactive) | 12 µM (inactive) | > 100 µM (inactive) | 40 µM (inactive)
CCN1CC(C)Cn2c(=O)[nH]c3cc(Br)cc1c32 (stereo not given) | 6.9 µM (inactive) | 18.5 µM (inactive) | 11.4 µM (inactive) | 44.7 µM (inactive) | 16.9 µM (inactive) | 27.7 µM (inactive) | 11 µM (inactive) | 23.9 µM (inactive) | 22.6 µM (inactive) | 6.97 µM (inactive) | 4.81 µM (inactive) | 5.01 µM (inactive) | 64.4 µM (inactive) | 19.1 µM (inactive) | 21.4 µM (inactive) | 48.8 µM (inactive) | 24 µM (inactive) | 18.5 µM (inactive) | 10.9 µM (inactive) | 12.1 µM (inactive)
CC12CCC(C(Nc3ccccn3)C1=O)C2(C)C (stereo not given) | > 100 µM (inactive) | > 100 µM (inactive) | 63 µM (inactive) | > 100 µM (inactive) | > 100 µM (inactive) | > 100 µM (inactive) | > 100 µM (inactive) | > 100 µM (inactive) | > 100 µM (inactive) | > 100 µM (inactive) | > 100 µM (inactive) | > 100 µM (inactive) | > 100 µM (inactive) | > 100 µM (inactive) | > 100 µM (inactive) | > 100 µM (inactive) | > 100 µM (inactive) | > 100 µM (inactive) | > 100 µM (inactive) | > 100 µM (inactive)
Cc1cc(=O)c2ccccc2n1CCCCCCCCCCn1c(C)cc(=O)c2ccccc21 | 26.1 µM (inactive) | 17.2 µM (inactive) | 30.2 µM (inactive) | 21.4 µM (inactive) | 15.1 µM (inactive) | 19.3 µM (inactive) | 21.9 µM (inactive) | > 10 µM (inactive) | 16.4 µM (inactive) | 17.1 µM (inactive) | 17.5 µM (inactive) | 20.4 µM (inactive) | 15.7 µM (inactive) | 0.64 µM (active) | 5.53 µM (inactive) | 14 µM (inactive) | 15.6 µM (inactive) | 16.3 µM (inactive) | 30.2 µM (inactive) | 15.4 µM (inactive)
Cn1c(=O)c2c(O)cc(N)nc2n(C)c1=O | > 100 µM (inactive) | > 100 µM (inactive) | > 100 µM (inactive) | > 100 µM (inactive) | > 100 µM (inactive) | > 100 µM (inactive) | > 100 µM (inactive) | > 100 µM (inactive) | > 100 µM (inactive) | > 100 µM (inactive) | > 100 µM (inactive) | > 100 µM (inactive) | > 100 µM (inactive) | > 100 µM (inactive) | > 100 µM (inactive) | > 100 µM (inactive) | > 100 µM (inactive) | > 100 µM (inactive) | > 100 µM (inactive) | > 100 µM (inactive)
Cc1cc(S(=O)(=O)Nc2nc(N)nc(N3N=CCC3C)n2)c(SCC(=O)O)cc1Cl (stereo not given) | > 10 µM (inactive) | > 10 µM (inactive) | > 10 µM (inactive) | > 10 µM (inactive) | > 10 µM (inactive) | > 10 µM (inactive) | > 10 µM (inactive) | > 10 µM (inactive) | > 10 µM (inactive) | > 10 µM (inactive) | > 10 µM (inactive) | > 10 µM (inactive) | > 10 µM (inactive) | > 10 µM (inactive) | > 10 µM (inactive) | > 10 µM (inactive) | > 10 µM (inactive) | > 10 µM (inactive) | > 10 µM (inactive) | > 10 µM (inactive)
